Assay results: patent EP4471048A1, “PEPTIDE INHIBITORS OF INTERLEUKIN-23 RECEPTOR” (Zealand Pharma A/S, priority 2023, dated 2024)
pIC50: −log10 of the molar value.

Legend:
[1] = Peptide stability in simulated intestinal fluid (SIF); type: in vitro ADME; conditions: 37 °C, porcine pancreatin
Procedure, shortened: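 Peptides were incubated at 37 °C with gentle shaking in pH 6.8 potassium phosphate SIF containing porcine pancreatin (10 g/L). Supernatants were analysed by LC-HRMS. Percent remaining at each timepoint, including 4 h, was calculated relative to time zero from absolute peak areas.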

human IL-23R = molecular target: T1, human IL-23R (Homo sapiens, UniProt Q5VWK5); assay: biochemical
T1 sequence (Q5VWK5 22-629): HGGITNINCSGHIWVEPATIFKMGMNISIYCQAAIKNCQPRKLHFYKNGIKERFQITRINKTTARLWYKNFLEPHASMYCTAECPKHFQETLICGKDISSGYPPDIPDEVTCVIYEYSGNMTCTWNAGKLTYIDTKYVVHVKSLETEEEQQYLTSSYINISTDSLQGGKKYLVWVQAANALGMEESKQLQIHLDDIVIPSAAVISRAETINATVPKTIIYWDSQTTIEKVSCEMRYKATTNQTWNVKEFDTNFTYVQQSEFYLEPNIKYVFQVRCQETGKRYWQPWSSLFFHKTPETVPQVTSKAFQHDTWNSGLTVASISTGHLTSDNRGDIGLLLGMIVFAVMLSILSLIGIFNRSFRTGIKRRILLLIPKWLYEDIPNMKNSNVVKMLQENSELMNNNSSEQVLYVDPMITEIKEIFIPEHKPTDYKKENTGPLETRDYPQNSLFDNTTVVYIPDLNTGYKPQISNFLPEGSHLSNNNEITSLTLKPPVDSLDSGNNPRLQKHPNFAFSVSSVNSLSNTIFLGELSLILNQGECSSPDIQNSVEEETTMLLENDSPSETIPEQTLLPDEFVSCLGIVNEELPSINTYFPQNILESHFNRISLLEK
Procedure, shortened: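 BRET displacement of a TAMRA-labelled reference compound from N-terminal Nanoluc-IL-23R fusion protein in membranes from stably transfected HEK293 cells. Incubation 2 h at room temperature, then Nanoluc substrate was added and the TAMRA/Nanoluc ratio read. IC50 and maximal displacement came from 4-parameter logistic fits.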

[2] = Peptide stability in simulated gastric fluid (SGF); type: in vitro ADME; conditions: pig, simulated gastric fluid (SGF) with porcine pepsin (3.2 g/L), 37 °C, porcine pepsin; for remaining at 4 h, 10 µM: pH 1.2, 4 h
Procedure, shortened: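 Peptide incubated at 37 °C with gentle shaking in SGF (NaCl, pH 1.2). Samples centrifuged, diluted and analysed by LC-HRMS; percent remaining at each timepoint from absolute peak areas relative to time zero, with 4 h as the reference point.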

SIF (% remaining 4 h) ([1]; 10 µM, pH 6.8, 4 h): 0%
remaining at 1 h, 10 µM ([1]; pig, pH 6.8, 1 h): 23%
remaining at 4 h, 10 µM ([1]; pig, SAR tables, % peptide remaining, pH 6.8, 4 h, read-out: SIF (% after 4 h)): 0%
% displacement (hIL-23R NIuc) (human IL-23R): 103%
pIC50 (human IL-23R): 10.40
remaining at 1 h, 10 µM ([2]; pH 1.2, 10 µM, pH 1.2, 1 h, read-out: SGF (% remaining 1 h)): 104%
remaining at 4 h, 10 µM ([2]; pH 1.2, 10 µM, read-out: SGF (% remaining 4 h)): 97%
remaining at 4 h, 10 µM ([2]; pH 1.2, SAR tables, % peptide remaining, 10 µM, read-out: SGF (% after 4 h)): 104%
Compound: CC(C)C[C@]1(C)NC(=O)[C@H](Cc2ccc3ccccc3c2)NC(=O)[C@H](Cc2ccc(OCCN)cc2)NC(=O)[C@@H]2CCC(=O)N[C@H](CCCCNC(=O)CC[C@@H](C(=O)N[C@@H](CCN)C(=O)N[C@@H](Cc3cccnc3)C(N)=O)NC1=O)C(=O)N[C@@H]([C@@H](C)O)C(=O)N[C@@H](C(C)C)C(=O)N[C@@H](Cc1c[nH]c3ccccc13)C(=O)N[C@@H](CCC(N)=O)C(=O)N2 [Compound 1, [{d}K](1c)(6c)^†TVWQE(6c)[Y(2-aminoethoxy)][2-Nal][2-Me-Leu]E(1c)[Dab][3-(3-Pyridyl)-Ala]-[NH2]]
